Experimental data from patent US5532231A, “Antibacterial agent” (priority 1994, dated 1996).

Legend:
[1] = system: tested bacterial strains; assay: Antimicrobial spectrum, overall; type: cell-based
Procedure: (§1) Saturated solutions of TA and Focusin were prepared by adding 1.14 μg TA and 7 μg Focusin to 1 ml LB (final conc. of 1% ethanol). About 10^5 bacteria of various strains were then added. The control was bacteria in the same medium with no antibacterial agents. The bacteria were introduced at 37° C. with shaking at 100 rpm. When the control became turbid, viable cell count was performed on LB agar plates. Growth inhibition is presented as percentage of the no antibiotic control.

[2] = system: E. coli ESS; assay: Release of Focusin from mouse tissue: inhibition by the 4th wash liquid; type: cell-based, Escherichia coli; details: for Inhibition % by the 4th wash liquid: 10 μg Focusin
Procedure: (§2) Focusin was tested in the same manner as that described above (under 8.1) with the exception that the tissues in the test tube were washed four times with a solution of 1 ml sterile saline. Each saline wash was for 1 hour at 37° C. Following incubation, the washing saline solution was added to an exponentially growing cultures of E. coli ESS in a concentration of 10^5 cells/ml.
(§3) The cultures with the saline wash were incubated at 37° C. for 6 hours and then viable cell count was performed in order to estimate the amount of killing by the antibacterial agent that were released from the tissues. After the four washes the tissues were transferred to 10^5 E. coli ESS log cultures and were then incubated for 5 hours. The tissues were transferred in this way for three times, each time the percentage of inhibition by the treated tissue was measured by viable count.
(§4) The tissues were treated as described in Section 8.2 above.

[3] = system: E. coli ESS Kan^r; assay: Paper disc filter antibiotic assay (zone of inhibition); type: cell-based, Escherichia coli
Procedure: Escherichia coli ESS Kan^r, is a kanamycin resistant strain of E. coli ESS, derived by transducing E. coli ESS with P1:TnV, Kan^r. This strain was used for the standard antibiotic assays.
LB Kan medium was solidified by 1.5% Bacto agar (Difco). For the antibiotic assay, Nutrient Broth agar plates were used. NB medium is 0.8% Nutrient Broth (Difco) containing 0.5% NaCl (Merck). NB was solidified by 1.8% Bacto agar (Difco). The NB plates were overlaid by 3.5 ml NB soft agar (0.9% Bacto agar) mixed with 0.1 ml E. coli ESS Kan^r overnight culture.
Antibiotic activity against E. coli ESS Kan^r was determined by the paper disc filter assay (Leo et al., 1945). Unknown quantities of antibiotic TA or Focusin, dissolved in ethanol, saline or NB were applied to paper disc filters (6 mm diameter; Schleicher and Schull). After allowing the ethanol to evaporate in the hood for about 15 mins, the dry filters were placed on nutrient broth plates which had been overlaid with an overnight culture of E. coli ESS Kan^r as described above.
The diameter of the zone of inhibition was recorded after 18 hours in incubation at 37° C. The concentration of the antibacterial agents were determined from a standard inhibition curve prepared with known quantities of TA and Focusin.

[4] = system: Helicobacter pilori; assay: Antimicrobial spectrum, liquid media, viable cell count; type: cell-based; details: saturating concentrations
Procedure: as §1

[5] = system: Klebsiella Gr47; assay: as above; type: cell-based; details: saturating concentrations; hospital strain
Procedure: as §1

[6] = system: Bacillus subtilis; assay: as above; type: cell-based; details: saturating concentrations
Procedure: as §1

[7] = system: Erwinia herbicola; assay: as above; type: cell-based; details: saturating concentrations
Procedure: as §1

[8] = system: Pseudomonas aeruginosa; assay: as above; type: cell-based; details: saturating concentrations
Procedure: as §1

[9] = system: Proteus vulgaris; assay: as above; type: cell-based; details: saturating concentrations
Procedure: as §1

[10] = system: Klebsiella sp; assay: as above; type: cell-based; details: saturating concentrations; hospital strain
Procedure: as §1

[11] = system: Serratia marcescens; assay: as above; type: cell-based; details: saturating concentrations
Procedure: as §1

[12] = system: Enterobacter; assay: as above; type: cell-based; details: saturating concentrations
Procedure: as §1

[13] = system: Staphylococcus albus; assay: as above; type: cell-based
Procedure: as §1

[14] = system: Citrobacter diversus; assay: as above; type: cell-based; details: saturating concentrations
Procedure: as §1

[15] = system: Salmonella thyphimurium; assay: as above; type: cell-based; details: saturating concentrations
Procedure: as §1

[16] = system: Providencia strautii; assay: as above; type: cell-based; details: saturating concentrations
Procedure: as §1

[17] = system: Klebsiella pneumoniae; assay: as above; type: cell-based; details: saturating concentrations; hospital strain
Procedure: as §1

[18] = system: Mycobacteria smegmatis; assay: as above; type: cell-based, Mycobacterium smegmatis; details: saturating concentrations
Procedure: as §1

[19] = system: Staphylococcus aureas; assay: as above; type: cell-based, Staphylococcus aureus; details: saturating concentrations
Procedure: as §1

[20] = system: E. coli ESS; assay: Killing effect of the washed treated mouse tissue; type: cell-based, Escherichia coli; details: for Inhibition % by the treated tissue*** / Inhibition % by the treated tissue**: 10 μg Focusin; for Inhibition % by the treated tissue***: after third transfer
Procedure: as §2, §3, §4
After the fourth wash, the treated tissues were transferred to E. coli ESS cultures (10^5 cells) in nutrient broth. The culture tubes were then incubated at 37° C. for 6 hours and the extent of growth inhibition was measured by viable cell count. The treated tissues were transferred to E. coli cultures two more times (a total of three times), and each time the percentage of growth inhibition by the treated tissues was checked.

[21] = system: E. coli K-12; assay: Antimicrobial spectrum, liquid media, viable cell count; type: cell-based, Escherichia coli; details: saturating concentrations
Procedure: as §1

[22] = system: E. coli ESS; assay: as above; type: cell-based, Escherichia coli; details: saturating concentrations
Procedure: as §1

`CCCC1OC(=O)C(C)CC(C)CCCCC(=O)CCCC(CC)CCCC(COC)CCC(O)C(O)CC(O)CNC1=O` (stereo not drawn) [Focusin] was tested, and the “antibacterial activity spectrum (in words)” value [1] was “broad spectrum antibacterial activity against both Gram-positive and Gram-negative bacteria”, the “inhibition of E. coli growth by the fourth liquid wash (in words)” value ([2]; all tissues except liver) was “completely inhibit the E. coli growth” and the “Inhibition % by the 4th wash liquid” value ([2]; bladder) was 100%. For the same compound, the “Inhibition % by the 4th wash liquid” value ([2]; eye) was 100%, the “Inhibition % by the 4th wash liquid” value ([2]; heart) was 100% and the “Inhibition % by the 4th wash liquid” value ([2]; intestine) was 100%. The “Inhibition % by the 4th wash liquid” value ([2]; kidney) was 100%, the “Inhibition % by the 4th wash liquid” value ([2]; liver) was 67% and the “Inhibition % by the 4th wash liquid” value ([2]; lungs) was 100%. For the same compound, the “Inhibition % by the 4th wash liquid” value ([2]; spleen) was 100%, the “Inhibition % by the 4th wash liquid” value ([2]; teeth) was 100% and the “activity relative to TA at high concentrations” value ([3]; high concentrations) was 1/10. The “activity relative to TA at low concentrations” value ([3]; low concentrations) was “approximately 1/8”, the “amount giving an inhibition zone of 11 mm” value ([3]; zone 11 mm, paper disc) was 640 ng and the “amount required to obtain a zone of inhibition of about 2 mm” value ([3]; zone about 2 mm, paper disc) was 60 ng. The killing [4] was 100%, the killing [5] was 100% and the killing [6] was 100%. The killing [7] was 100%, the killing [8] was 0% and the killing [9] was 90%. For the same compound, the killing [10] was 60%, the killing [11] was 67% and the killing [12] was 100%. For the same compound, the “incubation time after which the strain began to show sensitivity” value ([13]; saturating concentrations) was greater than 46 h, the killing ([13]; saturating concentrations (Focusin), on the 46th hour) was 73% and the killing [14] was 100%. For the same compound, the killing [15] was 40%, the killing [16] was 100% and the killing [17] was 96%. The killing [18] was 0%, the killing [19] was 100% and the “inhibition by the washed tissues containing bound focusin” value ([20]; all tissues, first transfer) was no less than 99%. For the same compound, the “inhibition after the third transfer (in words)” value ([20]; bladder and eye) was “no inhibition was observed”, the “Inhibition % by the treated tissue***” value ([20]; bladder) was 0% and the “Inhibition % by the treated tissue**” value ([20]; bladder, first transfer) was greater than 99%. For the same compound, the “Inhibition % by the treated tissue***” value ([20]; eye) was 0%, the “Inhibition % by the treated tissue**” value ([20]; eye, first transfer) was greater than 99% and the “Inhibition % by the treated tissue***” value ([20]; heart) was 98%. For the same compound, the “Inhibition % by the treated tissue**” value ([20]; heart, first transfer) was 100%, the “Inhibition % by the treated tissue***” value ([20]; intestine) was 38% and the “Inhibition % by the treated tissue**” value ([20]; intestine, first transfer) was 100%. The “Inhibition % by the treated tissue***” value ([20]; kidney) was 90%, the “Inhibition % by the treated tissue**” value ([20]; kidney, first transfer) was 100% and the “Inhibition % by the treated tissue***” value ([20]; liver) was 100%. For the same compound, the “Inhibition % by the treated tissue**” value ([20]; liver, first transfer) was 99%, the “Inhibition % by the treated tissue***” value ([20]; lungs) was 17% and the “Inhibition % by the treated tissue**” value ([20]; lungs, first transfer) was 100%. For the same compound, the “Inhibition % by the treated tissue***” value ([20]; spleen) was 98%, the “Inhibition % by the treated tissue**” value ([20]; spleen, first transfer) was 100% and the “Inhibition % by the treated tissue***” value ([20]; teeth) was 91%. The “Inhibition % by the treated tissue**” value ([20]; teeth, first transfer) was 100%, the killing [21] was 100% and the killing [22] was 100%.
